For this assay, the system named is HCV genotype 1b replicon. Format: cell-based. The note with it: Huh-7-derived cell line (Zluc), HCV genotype 1b replicon with luciferase reporter, 72 hours of incubation. For orientation: Replicon systems follow genome replication, usually without infectious particles.
`CCOc1nc(N)nc2c1ncn2[C@@H]1O[C@H](COP(=O)(N[C@@H](C)C(=O)OC(C)C)SCC2NC(=O)NC2=O)[C@@H](O)[C@@]1(C)F` (single isomer, unassigned) [3b Diastereomer 1] showed an EC50 of 1 to 10 µM.

`CC(C)OC(=O)[C@H](C)NP(=O)(OC[C@H]1O[C@@H](n2ccc(=O)[nH]c2=O)[C@](C)(O)[C@@H]1O)SCC1NC(=O)NC1=O` (single isomer, unassigned) [4b Diastereomer 1]: the EC50 is over 10 µM. To `CC(C)OC(=O)[C@@H](C)NP(=O)(OC[C@H]1O[C@@H](n2ccc(=O)[nH]c2=O)[C@](C)(Cl)[C@@H]1O)SC1CCCC1` (single isomer, unassigned) [8a Diastereomer 1] belongs over 10 µM. To `CC(C)OC(=O)[C@H](C)NP(=O)(OC[C@H]1O[C@@H](n2ccc(=O)[nH]c2=O)[C@](C)(Cl)[C@@H]1O)SC1CCCC1` (single isomer, unassigned) [8b Diastereomer 1] belongs 1 to 10 µM. `COC(=O)N[C@@H](CSP(=O)(N[C@@H](C)C(=O)OC(C)C)OC[C@H]1O[C@@H](n2cnc3c(OC)nc(N)nc32)[C@](C)(O)[C@@H]1O)C(=O)OC(C)C` (stereo partly drawn) [Compound 2by] had an EC50 of 1 to 10 µM. To `CCOC(=O)[C@H](C)NP(=O)(OC[C@H]1O[C@@H](n2cnc3c(OCC)nc(N)nc32)[C@](C)(O)[C@@H]1O)SCC` (stereo partly drawn) [Compound 10b] belongs at most 0.25 µM. To `CCOC(=O)[C@H](C)NP(=O)(OC[C@H]1O[C@@H](n2cnc3c(=O)[nH]c(N)nc32)[C@](C)(O)[C@@H]1O)SCC` (stereo partly drawn) [Compound 13b] belongs 1 to 10 µM; to `CCOC(=O)CCSP(=O)(N[C@@H](C)C(=O)OC(C)C)OC[C@H]1O[C@@H](n2ccc(=O)[nH]c2=O)[C@](C)(O)[C@@H]1O` (stereo partly drawn) [Compound 15b], over 10 µM; to `COC(=O)CSP(=O)(N[C@@H](C)C(=O)OC(C)C)OC[C@H]1O[C@@H](n2ccc(=O)[nH]c2=O)[C@](C)(Cl)[C@@H]1O` (stereo partly drawn) [Compound 17b], over 10 µM.

A word on the EC50: it is the concentration at which the effect is half-maximal. High values mean a less potent agent, low ones a more potent agent.

The values are drawn from patent US9339541B2, “Thiophosphate nucleosides for the treatment of HCV” (priority 2013, dated 2016).
